Source: article PMC5733301, “Antitubercular Nitroimidazoles Revisited: Synthesis and Activity of the Authentic 3-Nitro Isomer of Pretomanid” (ACS Medicinal Chemistry Letters, 2017)
In brackets after ≈: the same amount, converted by molar mass.

Columns and labels:
[1] = parameters: method as in PMID 23733467; conditions: MDR-TB patients; ref [14]; cited from earlier work
M. tb (strain H37Rv) [2] = tested on: M. tb (strain H37Rv); parameters: method as in PMID 25781074; conditions: aerobic, growth inhibition ≥90%, ref [15]; cited from earlier work
M. tb (strain H37Rv) [3] = tested on: M. tb (strain H37Rv); parameters: method as in PMID 25781074; conditions: hypoxic, growth inhibition ≥90%, ref [15]; cited from earlier work
VERO cells = assay: Cytotoxicity against mammalian cells (VERO), 72 h assay; type: cell-based; conditions: Chlorocebus sabaeus, cytotoxicity toward VERO cells
M. tb (strain H37Rv) [4] = assay: MABA, MIC against M. tb under aerobic conditions; type: cell-based, Mycobacterium tuberculosis
M. tb (strain H37Rv) [5] = assay: LORA, MIC against M. tb under hypoxic conditions (nonreplicating persistent bacteria); type: cell-based, Mycobacterium tuberculosis; conditions: vs 4 and 3
[6] = tested on: Mycobacterium tuberculosis (M. tb); parameters: method as in PMID 19209889; conditions: vs 4; ref [22]; cited from earlier work
M. tb [7] = tested on: M. tb; parameters: method as in PMID 19209889; conditions: ref [22]; cited from earlier work
M. tb [8] = tested on: M. tb; parameters: method as in PMID 19209889; conditions: ref [22]; cited from earlier work; remark: listed apart in the source

Cc1ncc([N+](=O)[O-])n1CCO [MET, metronidazole]
neurotoxicity in long-term use [1]: too neurotoxic for long-term use

O=[N+]([O-])c1cn2c(n1)OC[C@@H](OCc1ccc(OC(F)(F)F)cc1)C2 [compound 4, pretomanid]
MIC MABA (M. tb (strain H37Rv) [2]): 0.50 ± 0.30 µM (≈ 0.18 µg/mL) | MIC LORA (M. tb (strain H37Rv) [3]): 2.6 ± 1.4 µM (≈ 0.934 µg/mL) | IC50 (VERO cells): > 128 µM

O=[N+]([O-])c1cnc2n1C[C@H](OCc1ccc(OC(F)(F)F)cc1)CO2 [compound 8]
loss in activity in comparison to its 2-nitro isomer, 4 (M. tb (strain H37Rv) [4]; M. tb MIC vs 4): > 256 fold

Cc1cc(CO[C@@H]2COc3nc([N+](=O)[O-])cn3C2)ccc1OC(F)(F)F [compound 9]
more active than both 4 and moxifloxacin (6) in MABA (M. tb (strain H37Rv) [4]; MABA, vs 4 and 6): seven- to eight-fold | more potent than pretomanid in the aerobic assay (M. tb (strain H37Rv) [4]; MABA, vs pretomanid): eight-fold | better than both 4 and linezolid (3) in LORA (M. tb (strain H37Rv) [5]): about three-fold

O=[N+]([O-])c1cn2c(n1)O[C@H](COCc1ccc(OC(F)(F)F)cc1)C2 [compound 20]
less active than 4 [6]: 5- to 10 fold | anaerobic MIC90 (M. tb [7]): 31 µM | aerobic MIC99 (M. tb [8]): 4 to 8 µM
